Reference: patent US9663478B2, “Benzotriazine oxides as drugs targeting Mycobacterium tuberculosis” (priority 2011, dated 2017)
In brackets after ≈: the same amount, converted by molar mass. Read-outs that look alike come from different tables or passages of the source.

Key:
Mtb H37Rv [1] = assay: TB MIC - SRI, resazurin-based microplate assay; assay type: cell-based, Mycobacterium tuberculosis; settings: Mycobacterium tuberculosis, H37RV
Mtb H37Rv [2] = assay: TB MIC - ITR (UIC), Institute for Tuberculosis Research; assay type: cell-based, Mycobacterium tuberculosis; settings: for MIC: Mycobacterium tuberculosis, H37RV, Tables 1-4, read-out: TB MIC - ITR
NRP Mtb H37Rv cells = assay: Low-oxygen recovery assay (LORA) MIC; assay type: cell-based, Mycobacterium tuberculosis; settings: for LORA MIC: Tables P1, P2, non-replicating M. tuberculosis; for MIC: Mycobacterium tuberculosis, H37RV, NRP Mtb, Tables 1-4 and text, read-out: LORA MIC - ITR
[3] = Tables P1-P3, read-out: TB MIC - SRI
[4] = Tables 1-4 and text, read-out: TB MIC - SRI

SMILES | MIC (Mtb H37Rv [1]; [4]) | MIC (NRP Mtb H37Rv cells) | MIC (Mtb H37Rv [2]) | also measured
[O-][n+]1nc(N[C@@H]2C[C@H]3CC[C@@H]2C3)[n+]([O-])c2ccc(Cl)cc21 (racemic) [SRI-012305] | – | – | – | MIC (Mtb H37Rv [1]; [3]): 0.156 mg/L (≈ 0.509 µM); TB MIC - UIC (Mtb H37Rv [2]; Tables P1, P2): < 0.125 mg/L; LORA MIC (NRP Mtb H37Rv cells): 0.2 mg/L
C[C@@H]1[C@H]2C[C@@H](C[C@H]1Nc1n[n+]([O-])c3cc(F)ccc3[n+]1[O-])C2(C)C (racemic) [SRI-012402] | – | – | – | MIC (Mtb H37Rv [1]; [3]): 0.312 mg/L (≈ 0.939 µM)
[O-][n+]1nc(N[C@@H]2C[C@H]3CC[C@@H]2C3)[n+]([O-])c2cc3c(cc21)CCC3 (racemic) [SRI-012404] | – | – | – | MIC (Mtb H37Rv [1]; [3]): 1.25 mg/L (≈ 4 µM); VERO Tox-SRI (Vero cells; African green monkey, 72 h): 50
Cc1cccc2c1[n+]([O-])c(N[C@@H]1C[C@H]3CC[C@@H]1C3)n[n+]2[O-] (racemic) [SRI-012461] | – | – | – | MIC (Mtb H37Rv [1]; [3]): 0.156 mg/L (≈ 0.545 µM); VERO Tox-SRI (Vero cells; African green monkey, 72 h): 2.3
CSc1c(C)[n+]([O-])c2ccccc2[n+]1[O-] [Cmpd 3] | – | – | – | Vero Tox CC50 (Vero cells): >16 mg/L
COCCNC(=O)c1ccc2c(c1)[n+]([O-])c(O)c(C#N)[n+]2[O-] [Cmpd 4] | > 20 mg/L | > 32 mg/L | – | Vero Tox CC50 (Vero cells; African green monkey, 72 h): >16 mg/L
Cc1c(N2CCCC2)[n+]([O-])c2ccccc2[n+]1[O-] [Cmpd 6] | > 10 mg/L | > 32 mg/L | – | Vero Tox CC50 (Vero cells; African green monkey, 72 h): >16 mg/L
[O-][n+]1nc(NC2CC2)[n+]([O-])c2ccccc21 [Compound 8b, 3-(cyclopropylamino)benzo[e][1,2,4]triazine 1,4-dioxide] | 2.5 mg/L (≈ 11.5 µM) | – | – | Vero Tox CC50 (Vero cells; African green monkey, 72 h): 21 mg/L
[O-][n+]1nc(NC2CCC2)[n+]([O-])c2ccccc21 [Compound 8d, 3-(cyclobutylamino)benzo[e][1,2,4]triazine 1,4-dioxide] | 1.2 mg/L (≈ 5.17 µM) | 0.84 mg/L (≈ 3.62 µM) | 0.94 mg/L (≈ 4.05 µM) | –
[O-][n+]1nc(NC2CCCCC2)[n+]([O-])c2ccccc21 [Compound 8f, 3-(cyclohexylamino)benzo[e][1,2,4]triazine 1,4-dioxide] | 2.5 mg/L (≈ 9.6 µM) | 0.75 mg/L (≈ 2.88 µM) | 3.8 mg/L (≈ 14.6 µM) | –
[O-][n+]1nc(NC2CCCCCC2)[n+]([O-])c2ccccc21 [Compound 8g, 3-(cycloheptylamino)benzo[e][1,2,4]triazine 1,4-dioxide] | 2.5 mg/L (≈ 9.11 µM) | 0.5 mg/L (≈ 1.82 µM) | 1.6 mg/L (≈ 5.83 µM) | –
CC(C)(C)C1CCC(Nc2n[n+]([O-])c3ccccc3[n+]2[O-])CC1 (stereo not drawn) [Compound 8j, 3-((4-(tert-butyl)cyclohexyl)amino)benzo[e][1,2,4]triazine 1,4-dioxide] | 0.62 mg/L (≈ 1.96 µM) | < 0.12 mg/L | 0.22 mg/L (≈ 0.695 µM) | –
CC(C)CCC(C)Nc1n[n+]([O-])c2ccccc2[n+]1[O-] (stereo not drawn) [Compound 8l, 3-((5-methylhexan-2-yl)amino)benzo[e][1,2,4]triazine 1,4-dioxide] | 1.2 mg/L (≈ 4.34 µM) | 0.38 mg/L (≈ 1.38 µM) | 0.52 mg/L (≈ 1.88 µM) | –
CCNc1n[n+]([O-])c2cc(F)ccc2[n+]1[O-] [Compound 15aa, 3-(ethylamino)-7-fluorobenzo[e][1,2,4]triazine 1,4-dioxide] | 0.62 mg/L (≈ 2.77 µM) | 0.75 mg/L (≈ 3.35 µM) | 0.35 mg/L (≈ 1.56 µM) | –
[O-][n+]1nc(NC2CCCC2)[n+]([O-])c2ccc(F)cc21 [Compound 15ae, 3-(cyclopentylamino)-7-fluorobenzo[e][1,2,4]triazine 1,4-dioxide] | 0.31 mg/L (≈ 1.17 µM) | 0.34 mg/L (≈ 1.29 µM) | 0.33 mg/L (≈ 1.25 µM) | –
[O-][n+]1nc(NC2CCCCC2)[n+]([O-])c2ccc(F)cc21 [Compound 15af, 3-(cyclohexylamino)-7-fluorobenzo[e][1,2,4]triazine 1,4-dioxide] | 0.62 mg/L (≈ 2.23 µM) | 0.47 mg/L (≈ 1.69 µM) | 0.68 mg/L (≈ 2.44 µM) | –
[O-][n+]1nc(NC2CCC2)[n+]([O-])c2ccc(Cl)cc21 [Compound 15bd, 7-chloro-3-(cyclobutylamino)benzo[e][1,2,4]triazine 1,4-dioxide] | 0.15 mg/L (≈ 0.562 µM) | < 0.12 mg/L | – | –
CCNc1n[n+]([O-])c2cc(OC)ccc2[n+]1[O-] [Compound 15da, 3-(ethylamino)-7-methoxybenzo[e][1,2,4]triazine 1,4-dioxide] | 2.5 mg/L (≈ 10.6 µM) | 16 mg/L (≈ 67.7 µM) | 15 mg/L (≈ 63.5 µM) | –
Cc1cccc2c1[n+]([O-])c(NC1CCCC1)n[n+]2[O-] [Compound 15ee, 3-(cyclopentylamino)-5-methylbenzo[e][1,2,4]triazine 1,4-dioxide] | 0.31 mg/L (≈ 1.19 µM) | 0.27 mg/L (≈ 1.04 µM) | 0.43 mg/L (≈ 1.65 µM) | –
CCNc1n[n+]([O-])c2cc(C)c(OC)cc2[n+]1[O-] [Compound 15ga, 3-(ethylamino)-6-methoxy-7-methylbenzo[e][1,2,4]triazine 1,4-dioxide] | 2.5 mg/L (≈ 9.99 µM) | – | 3.5 mg/L (≈ 14 µM) | MIC (Mtb H37Rv [1]; Table 5, read-out: MIC, H37Rv): 1.2 mg/L (≈ 4.8 µM); Vero Tox CC50 (Vero cells; African green monkey, 72 h): >100 mg/L
[O-][n+]1nc(N2CCCC2)[n+]([O-])c2ccccc21 [Compound 17q, 3-(pyrrolidin-1-yl)benzo[e][1,2,4]triazine 1,4-dioxide] | – | – | – | MIC (Mtb H37Rv [1]; Table 5, read-out: MIC, H37Rv): 0.31 mg/L (≈ 1.33 µM); Vero Tox CC50 (Vero cells; African green monkey, 72 h): 17 mg/L
CN(Cc1ccccc1)c1n[n+]([O-])c2cc3c(cc2[n+]1[O-])CCC3 [Compound 20t, 3-(benzyl(methyl)amino)-7,8-dihydro-6H-indeno[5,6-e][1,2,4]triazine 1,4-dioxide] | – | 0.41 mg/L (≈ 1.27 µM) | – | MIC (Mtb H37Rv [1]; Table 5, read-out: MIC, H37Rv): 0.31 mg/L (≈ 0.962 µM); Vero Tox CC50 (Vero cells; African green monkey, 72 h): 17 mg/L
CC(C)(C)Nc1n[n+]([O-])c2ccccc2[n+]1[O-] [SRI-003356] | – | – | – | MIC (Mtb H37Rv [1]; read-out: TB MIC - SRI, Tables P1-P3): 1.25 mg/L (≈ 5.34 µM)
CCN(CC)c1n[n+]([O-])c2ccccc2[n+]1[O-] [SRI-009728] | – | – | – | MIC (Mtb H37Rv [1]; [3]): 0.312 mg/L (≈ 1.33 µM); TB MIC - UIC (Mtb H37Rv [2]; Table P3): 12.4 mg/L
CCNc1n[n+]([O-])c2cc(OC)ccc2[n+]1[O-] [SRI-012285] | – | – | – | TB MIC - UIC (Mtb H37Rv [2]; Tables P1, P2): 15.1 mg/L; LORA MIC (NRP Mtb H37Rv cells): 16.2 mg/L; VERO Tox-SRI (Vero cells; African green monkey, 72 h): 15.8
Nc1n[n+]([O-])c2cc(Br)ccc2[n+]1[O-] [SRI-012396] | – | – | – | MIC (Mtb H37Rv [1]; [3]): 1.25 mg/L (≈ 4.86 µM)
Cc1cccc2c1[n+]([O-])c(N)n[n+]2[O-] [SRI-012397] | – | – | – | MIC (Mtb H37Rv [1]; [3]): 0.625 mg/L (≈ 3.25 µM)
